Measured values from patent US20160310454A1, “LIVER X RECEPTOR AGONISTS IN THE TREATMENT OF EMPHYSEMA” (priority 2013, published 2016).
Entries after “also recorded” stand apart in the source; their conditions may differ.

How the values were obtained:
[1] = test system: mouse macrophages (bone marrow derived, ABCA1 fl/fl WT) treated with 5% CSE; experiment: Mouse macrophages treated with 5% CSE with or without LXR agonist (RT-PCR, Western blot, zymography); type: cell-based
Experimental: To prepare cigarette (CSE), the smoke from one cigarette (1.1 mg of nicotine, 15 mg of tar) was passed through 25 mls of phosphate buffered saline (PBS) (Mercer et al., 2004). The pH of the extracted solution was adjusted to 7.4 and then filtered (Mercer et al., 2004). CSE was added to the media at concentrations up to 5% (vol/vol) (Mercer et al., 2004).
In these experiments both mouse peritoneal and mouse bone marrow derived macrophages (BMdM) were utilized. Mouse peritoneal macrophages were isolated from peritoneal cavities of 3% thioglycolate injected mice on the 5th day from injection. To compare expression of genes in vitro and in vivo peritoneal macrophages were isolated from mice exposed to room air and cigarette smoke. For in vitro analysis cells were seeded on culture plates for 24 h and then treated with CSE. For in vivo analysis cells were collected from peritoneal cavity and mRNA was directly isolated. Mouse BMdMs were obtained from the following mice: ABCA1 fl/fl in a C57/BL6 background. Briefly, mice were first sacrificed by CO2 asphyxiation followed by cervical dislocation. After sacrificing the mouse the legs were amputated and the excess muscle tissue was removed so as to completely expose the femur and tibia, which were cleaned carefully. These samples were left in sterile PBS for the duration of the procedure. The cavity bones were then flushed with 10 ml of PBS using 26G needle. The obtained cells were then counted (usually 100-150 million cells per mouse) and centrifuged for 5 min at 2600 rpm. Hematopoietic cells can be separated by plastic adhesion; therefore the cells were incubated in petri dishes containing DMEM culture media and supplemented with 10% FBS and 1% antibiotics). Non-adherent progenitor cells were then collected after 2 hours of incubation in culture media and then seeded at a concentration of 4 million cells/ml in fresh culture media, supplemented with L-cell conditioned media containing macrophage colony stimulating factor (M-CSF) at a concentration of 20%. Approximately after 7-10 days of plating the cells become fully differentiated into macrophages and were ready for subsequent experiments. After treatment the culture supernatants, proteins, and total RNA were collected for analysis. […]
Total RNA was extracted from specimens of lung tissue 0.3 cm^3 in size with the use of the RNeasy kit (Qiagen, Germantown, Md.) (Goldklang et al., 2012). The RNA was then further processed to obtain cDNA, which was used for Real Time (RT) PCR analysis. TaqMan gene expression assays (Applied Biosystems, Carlsbad, Calif.) were performed to assess gene-transcript levels with the use of an ABI Prism 7900HT Sequence Detection System (Applera, Foster City, Calif.) (Goldklang et al., 2012). The following primers were used to check the respective gene expression: ABCA1 (Hs01059118_m1), ABCG1 (Hs00245154_m1), MMP-9 (Mm00442991_m1), IL-1β (Mm00434227_g1), TNF-α (Mm00443260_g1) and GAPDH (4352932E) from TaqMan Gene Expression Assays, Applied Biosystems, CA. β-actin was used as a control since it is a housekeeping gene.
The lungs of mice (-10 mg) were homogenized in 1 ml of Radioimmunoprecipitation assay (RIPA) buffer, and centrifuged at 14,000 g for 10 min. The protein concentration of each sample was measured using a Bradford reagent. The required amount of each sample was then used for western blot analysis, so that the concentration was equal for all samples. Proteins were first separated on the basis of molecular weight via sodium dodecyl sulphate polyacrylamide gel electrophoresis (SDS-PAGE). The same gel was then transferred onto a nitro cellulose membrane with the help of electric current (or electroblotting) that transfers the protein from polyacrylamide gel to the membrane. This membrane was then incubated in the solution containing primary antibodies, specific for the proteins of interest, ABCA1 and ABCG1, followed by the use of a secondary antibody that allowed the detection of protein by chemiluminescent. […]

[2] = In vivo bioavailability of LXR agonist in lung and serum (LC/MS/MS); design: species or system mouse
Experimental: FIG. 23. In vivo bioavailability of LXR agonist (T0901317) in the lung and serum after intraperitoneal (IP) and custom made diet administration. (A.) T0901317 LC/MS/MS Chromatogram showing no difference among standard and samples in the peak shape and retension time. (B.) Table representing levels of the administered drug in serum and lungs of AKR/J mice by IP (2 and 24 hours post drug administration) and in custom made diet (Research Diets Inc, 0.015% w/w). The result was normalized by using serum volume and lung tissue weight. No T0901317 was detected in control serum and lung.

[3] = biological target: T1, farnesoid X receptor (FXR (NR4H4)) (Homo sapiens, UniProt Q96RI1); settings: cited from earlier work
T1 sequence (Q96RI1 1-486): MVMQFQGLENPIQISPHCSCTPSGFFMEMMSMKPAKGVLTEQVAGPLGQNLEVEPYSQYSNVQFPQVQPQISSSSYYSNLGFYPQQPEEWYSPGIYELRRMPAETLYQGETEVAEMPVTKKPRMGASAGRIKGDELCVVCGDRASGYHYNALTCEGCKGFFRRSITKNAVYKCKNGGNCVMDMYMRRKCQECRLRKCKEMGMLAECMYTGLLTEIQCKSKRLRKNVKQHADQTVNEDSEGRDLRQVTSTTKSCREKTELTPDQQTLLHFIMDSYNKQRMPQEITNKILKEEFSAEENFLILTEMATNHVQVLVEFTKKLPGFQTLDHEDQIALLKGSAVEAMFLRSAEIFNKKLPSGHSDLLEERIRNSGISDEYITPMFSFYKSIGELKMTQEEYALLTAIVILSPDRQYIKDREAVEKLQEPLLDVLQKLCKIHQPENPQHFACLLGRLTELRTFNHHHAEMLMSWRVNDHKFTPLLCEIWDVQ

Structure (SMILES): O=S(=O)(c1ccccc1)N(CC(F)(F)F)c1ccc(C(O)(C(F)(F)F)C(F)(F)F)cc1 [T0901317, N-(2,2,2-trifluoroethyl)-N-[4-[2,2,2-trifluoro-1-hydroxy-1-(trifluoromethyl)ethyl]phenyl]-benzenesulfonamide]
- Expression of ABCA1 and ABCG1 (mRNA and protein) ([1]; 5% CSE, LXR agonist 3 μM): maintained at baseline levels
- cigarette smoke induced mRNA expression of TLR4/Myd88 ([1]; 5% CSE, LXR agonist 3 μM): inhibited
- cigarette smoke induced phosphorylation of JNK and ERK ([1]; 5% CSE, LXR agonist 3 μM, Western blot): inhibited
- Expression of ABCA1 and ABCG1 (mRNA and protein) ([1]; 5% CSE, LXR agonist 3 μM, listed as LXR agonist): re-established
- CSE induced upregulation of IL-1β and TNFα and downregulation of IL-10 (mRNA) ([1]; ABCA1 WT macrophages, 5% CSE, LXR agonist 3 μM): reversed back to baseline
- mRNA and activity of MMP-9 ([1]; ABCA1 WT macrophages, 5% CSE, LXR agonist 3 μM, gelatin zymography): blocked; also recorded: reduced
- cigarette smoke-induced pro-inflammatory cytokines and MMP expression and activity ([1]; mouse macrophages treated with CSE): blocked
- MMP-9 activity (zymography) and expression, MMP-13 expression and TNFα expression ([1]; smoke-induced, macrophages): decrease
- drug detected in the lungs ([2]; after IP administration, acute 10 day model): detected
- drug detected in the lungs ([2]; chronic 5 months model (diet 0.015% w/w), text prints after IP administration): detected
- activation of FXR compared with chenodeoxycholic acid [3]: more potently than a natural bile acid FXR ligand, chenodeoxycholic acid
- potency as activator of LXR versus FXR [3]: much more potent activator of LXR than FXR
